Data published in the supplement of paper PMC10883282.

How the values were obtained:
Assay in all cases: relative viability vs DMSO control (72 h) (fraction); higher = more viable cells
KHOS-240S = test system: KHOS-240S
In short: (§1)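 Relative viability was measured with ATPLite and expressed as percent growth, averaged across up to triplicate wells. Sarcoma cell lines had been seeded in 384-well plates to reach 80–90% confluence, dosed after 24 h, and incubated 72 h at 37 °C, 5% CO2. All data were rescaled on a scale where 1 is full and 0 is none.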

RD = test system: RD
In short: as §1

SYO-1 = test system: SYO-1
In short: as §1

MES-SA = test system: MES-SA
In short: as §1

SW1353 = test system: SW1353
In short: as §1

SW982 = test system: SW982
In short: as §1

VA-ES-BJ = test system: VA-ES-BJ
In short: as §1

HT1080 = test system: HT1080
In short: as §1

SK-LMS-1 = test system: SK-LMS-1
In short: as §1

RD-ES = test system: RD-ES
In short: as §1

G401 = test system: G401
In short: as §1

SK-ES-1 = test system: SK-ES-1
In short: as §1

O=c1sn(-c2cccc3ccccc23)c(=O)n1Cc1ccccc1 [Tideglusib]
Details	relative viability
G401, 0.00017 µM	1.08
G401, 0.00051 µM	1.12
G401, 0.00152 µM	1.08
G401, 0.00457 µM	1.1
G401, 0.01372 µM	1.08
G401, 0.04115 µM	1.07
G401, 0.1235 µM	1.05
G401, 0.3704 µM	1.04
G401, 1.111 µM	0.984
G401, 3.333 µM	0.9812
G401, 10 µM	0.918
HT1080, 0.00017 µM	1.06
HT1080, 0.00051 µM	1.08
HT1080, 0.00152 µM	1.07
HT1080, 0.00457 µM	1.1
HT1080, 0.01372 µM	1.069
HT1080, 0.04115 µM	1.07
HT1080, 0.1235 µM	1.06
HT1080, 0.3704 µM	1.09
HT1080, 1.111 µM	1.07
HT1080, 3.333 µM	1.097
HT1080, 10 µM	1.02
KHOS-240S, 0.00017 µM	1.05
KHOS-240S, 0.00051 µM	1.07
KHOS-240S, 0.00152 µM	1.09
KHOS-240S, 0.00457 µM	1.07
KHOS-240S, 0.01372 µM	1.08
KHOS-240S, 0.04115 µM	1.07
KHOS-240S, 0.1235 µM	1.07
KHOS-240S, 0.3704 µM	1.06
KHOS-240S, 1.111 µM	1.03
KHOS-240S, 3.333 µM	1.01
KHOS-240S, 10 µM	0.993
MES-SA, 0.00017 µM	0.972
MES-SA, 0.00051 µM	0.971
MES-SA, 0.00152 µM	0.946
MES-SA, 0.00457 µM	0.968
MES-SA, 0.01372 µM	0.962
MES-SA, 0.04115 µM	0.963
MES-SA, 0.1235 µM	0.959
MES-SA, 0.3704 µM	0.95
MES-SA, 1.111 µM	0.94
MES-SA, 3.333 µM	0.924
MES-SA, 10 µM	0.878
RD, 0.00017 µM	1.08
RD, 0.00051 µM	1.12
RD, 0.00152 µM	1.13
RD, 0.00457 µM	1.12
RD, 0.01372 µM	1.14
RD, 0.04115 µM	1.13
RD, 0.1235 µM	1.11
RD, 0.3704 µM	1.1
RD, 1.111 µM	1.1
RD, 3.333 µM	1.12
RD, 10 µM	1.12
RD-ES, 0.00017 µM	1.01
RD-ES, 0.00051 µM	1.03
RD-ES, 0.00152 µM	1.02
RD-ES, 0.00457 µM	1.02
RD-ES, 0.01372 µM	1.02
RD-ES, 0.04115 µM	1.01
RD-ES, 0.1235 µM	1.03
RD-ES, 0.3704 µM	1.01
RD-ES, 1.111 µM	1.01
RD-ES, 3.333 µM	1
RD-ES, 10 µM	0.992
SK-ES-1, 0.00017 µM	1.03
SK-ES-1, 0.00051 µM	1.06
SK-ES-1, 0.00152 µM	1.09
SK-ES-1, 0.00457 µM	1.12
SK-ES-1, 0.01372 µM	1.083
SK-ES-1, 0.04115 µM	1.08
SK-ES-1, 0.1235 µM	1.05
SK-ES-1, 0.3704 µM	1.03
SK-ES-1, 1.111 µM	1.03
SK-ES-1, 3.333 µM	0.977
SK-ES-1, 10 µM	0.923
SK-LMS-1, 0.00017 µM	1.02
SK-LMS-1, 0.00051 µM	1.01
SK-LMS-1, 0.00152 µM	1.02
SK-LMS-1, 0.00457 µM	1.01
SK-LMS-1, 0.01372 µM	0.994
SK-LMS-1, 0.04115 µM	1.02
SK-LMS-1, 0.1235 µM	1.02
SK-LMS-1, 0.3704 µM	0.993
SK-LMS-1, 1.111 µM	1
SK-LMS-1, 3.333 µM	1.01
SK-LMS-1, 10 µM	0.986
SW982, 0.00017 µM	1.07
SW982, 0.00051 µM	1.09
SW982, 0.00152 µM	1.08
SW982, 0.00457 µM	1.11
SW982, 0.01372 µM	1.11
SW982, 0.04115 µM	1.11
SW982, 0.1235 µM	1.1
SW982, 0.3704 µM	1.09
SW982, 1.111 µM	1.068
SW982, 3.333 µM	1.08
SW982, 10 µM	1.05
SW1353, 0.00017 µM	1.07
SW1353, 0.00051 µM	1.05
SW1353, 0.00152 µM	1.08
SW1353, 0.00457 µM	1.04
SW1353, 0.01372 µM	1.02
SW1353, 0.04115 µM	1.05
SW1353, 0.1235 µM	1.03
SW1353, 0.3704 µM	0.966
SW1353, 1.111 µM	1.01
SW1353, 3.333 µM	0.987
SW1353, 10 µM	0.827
SYO-1, 0.00017 µM	1.01
SYO-1, 0.00051 µM	0.987
SYO-1, 0.00152 µM	0.999
SYO-1, 0.00457 µM	0.97
SYO-1, 0.01372 µM	0.956
SYO-1, 0.04115 µM	0.944
SYO-1, 0.1235 µM	0.949
SYO-1, 0.3704 µM	0.953
SYO-1, 1.111 µM	0.969
SYO-1, 3.333 µM	0.944
SYO-1, 10 µM	0.891
VA-ES-BJ, 0.00017 µM	1.1
VA-ES-BJ, 0.00051 µM	1.12
VA-ES-BJ, 0.00152 µM	1.08
VA-ES-BJ, 0.00457 µM	1.1
VA-ES-BJ, 0.01372 µM	1.08
VA-ES-BJ, 0.04115 µM	1.08
VA-ES-BJ, 0.1235 µM	1.08
VA-ES-BJ, 0.3704 µM	1.04
VA-ES-BJ, 1.111 µM	1.07
VA-ES-BJ, 3.333 µM	1.04
VA-ES-BJ, 10 µM	1.02
